PubChem BioAssay (NCI)
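The compound was tested at five concentrations on cells cultured in 96-well plates, with a 48-hour exposure period. TGI denotes the concentration required for complete inhibition of growth.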

Tests used:
Assay in all cases: NCI-60 cell line screen, 48 h
[1] = tested on: EKVX NSCLC
[2] = tested on: HL-60(TB) leukemia
[3] = tested on: HCT-15 colon
[4] = tested on: CCRF-CEM leukemia
[5] = tested on: UO-31 renal
[6] = tested on: SK-MEL-28 melanoma
[7] = tested on: MDA-MB-435
[8] = tested on: OVCAR-3 ovarian
[9] = tested on: U251 CNS
[10] = tested on: SF-295 CNS
[11] = tested on: RXF 393 renal
[12] = tested on: SF-539 CNS
[13] = tested on: DU-145 prostate
[14] = tested on: SK-OV-3 ovarian
[15] = tested on: HCT-116 colon
[16] = tested on: NCI-H460 lung
[17] = tested on: NCI-H226 lung
[18] = tested on: SK-MEL-5 melanoma

Row | Compound | TGI [1] [µM] | TGI [2] [µM] | TGI [3] [µM] | TGI [4] [µM] | TGI [5] [µM] | TGI [6] [µM] | TGI [7] [µM] | TGI [8] [µM] | TGI [9] [µM] | TGI [10] [µM] | TGI [11] [µM] | TGI [12] [µM] | TGI [13] [µM] | TGI [14] [µM] | TGI [15] [µM] | TGI [16] [µM] | TGI [17] [µM] | TGI [18] [µM]
1 | CC(C)NC(=O)OCCN=C1c2ccccc2CCc2ccccc21 | 81.3 | 45.7 | 77.8 | 46.5 | 58.7 | 40.3 | 55.1 | 58.5 | 50.6 | 28.7 | > 100 | 41.5 | 88.9 | 85.4 | 46.6 | 76.9 | 60.5 | 27.4
2 | CN(C)c1ccc(/C=C(\NC(=O)c2ccccc2)C(=O)NC(CCC(=O)O)C(=O)O)cc1 (stereo unspecified) | > 100 | > 100 | > 100 | > 100 | > 100 | > 100 | > 100 | > 100 | > 100 | > 100 | > 100 | > 100 | > 100 | > 100 | > 100 | > 100 | > 100 | > 100
3 | COc1ccc(/C=C/C(=O)N[C@@H]2C(=O)N3[C@@H]2SC(C)(C)[C@@H]3C(=O)O)cc1 | > 100 | > 100 | > 100 | > 100 | > 100 | > 100 | > 100 | > 100 | > 100 | > 100 | > 100 | > 100 | > 100 | > 100 | > 100 | > 100 | > 100 | > 100
4 | COC(=O)C1(Cc2ccccc2)Cc2ccc3c(c2C1=O)CCC3 (stereo unspecified) | > 75.2 | > 63.3 | > 100 | > 89.5 | > 100 | > 100 | > 77.9 | > 100 | > 100 | > 100 | > 69.5 | > 76.9 | > 100 | > 100 | > 100 | > 100 | > 100 | 49.9
5 | Oc1ccc(Cn2c(-c3ccc(O)c(O)c3)nc3ccccc32)cc1O | 75.7 | 51.1 | > 100 | 32.8 | 47.3 | 78 | 32 | 41.3 | 47.1 | 68 | > 100 | 24.1 | 66.9 | 59.6 | 16.3 | 63.4 | 22.4 | 50.9
6 | CCN(CC)CCCNc1nc2ccccc2c2[nH]c3ccc(OC)cc3c12 | 3.31 | 3.02 | 3.05 | 3.87 | > 10 | 3.11 | 2.99 | > 10 | 3.23 | 2.39 | 2.96 | 3.67 | 8.44 | > 10 | 1.95 | 1.57 | 9.83 | 3.12
7 | NCCCN1CCN(CC(=O)O)CCN(CCCN)CCN(CC(=O)O)CC1 | > 100 | > 100 | > 100 | > 100 | > 100 | > 100 | > 100 | > 100 | > 100 | > 100 | > 100 | > 100 | > 100 | > 100 | > 100 | > 100 | > 100 | 21.3
8 | O=C(Cc1ccc(Cl)c(Cl)c1)N(CCc1ccc(Cl)c(Cl)c1)CCN1CCCC1 | 3.78 | 3.35 | 3.7 | 3.12 | 3.46 | 2.99 | 3.38 | 5.47 | 3.15 | 3.84 | 3.34 | 3.31 | 4.59 | 7.49 | 3.09 | 3.39 | 4.91 | 3.41
9 | CCOC(=O)[C@@]12CCC(C1=O)[C@](C)(O)C[C@@H]2c1ccccc1 | > 100 | > 100 | > 100 | > 100 | > 100 | > 100 | 38.4 | 84 | > 100 | > 100 | > 100 | > 100 | > 100 | 96.9 | > 100 | > 100 | > 100 | > 100
10 | O=C(CCCl)NNC1=NCCN1 | > 100 | > 100 | > 100 | > 100 | > 100 | > 100 | > 100 | > 100 | > 100 | > 100 | > 100 | > 100 | > 100 | > 100 | > 100 | > 100 | > 100 | > 100
11 | O=c1ccn2n1CCCCC2 | > 100 | > 100 | > 100 | > 100 | > 100 | > 100 | > 100 | > 100 | > 100 | > 100 | > 100 | > 100 | > 100 | > 100 | > 100 | > 100 | > 100 | > 100
12 | CC(=O)OCC1OC(n2c(N)c(C#N)c(-c3ccc(C)cc3)c(C#N)c2=S)C(OC(C)=O)C(OC(C)=O)C1OC(C)=O (stereo unspecified) | 34.7 | > 100 | > 100 | 78.4 | 31.8 | > 100 | 79.3 | > 100 | 30.6 | 73.8 | 32.7 | 19.2 | 28.7 | 66.5 | > 100 | > 100 | 20.1 | 23.2
13 | O=C(OC(=C(c1ccccc1)c1ccccc1)N1CCCC1=S)C(c1ccccc1)c1ccccc1 | > 10 | > 10 | > 10 | > 10 | > 10 | > 10 | > 10 | > 10 | > 10 | > 10 | > 10 | > 10 | > 10 | > 10 | > 10 | > 10 | > 10 | > 10
14 | O=C(CCc1cccc(O)c1)NCCc1ccc(O)cc1 | > 100 | > 100 | > 100 | > 100 | > 100 | > 100 | > 100 | > 100 | > 100 | > 100 | > 100 | > 100 | > 100 | > 100 | > 100 | > 100 | > 100 | > 100
15 | CN(C)c1nc(-c2ccccc2)c(C(=O)c2c[nH]c3ccccc23)s1 | > 100 | 16.5 | > 100 | > 60.5 | > 100 | > 100 | > 31.1 | > 94.4 | > 100 | > 100 | > 91.5 | > 100 | > 100 | > 100 | > 100 | > 79.2 | > 100 | > 100
16 | Cn1c2ccccc2c(=NNc2ccccc2C(=O)O)c2ccccc21 | 38 | 44.5 | 27.5 | 72 | 64.5 | 57.5 | 39.6 | 28.5 | 34.6 | 82.6 | 33.3 | 36.1 | > 100 | 71.1 | 37.7 | 39.7 | 45.8 | 28
17 | O=C1C=C(NCCc2cc(Br)c(O)c(Br)c2)C(=O)c2ncccc21 | 22 | 16.1 | 18.2 | 31.4 | 20.2 | 3.5 | 0.723 | 6.88 | 20 | 2.79 | 13.4 | 2.52 | 2.99 | 33.4 | 11.8 | 4.8 | 3.72 | 2.57
